Data reported in the NIST ThermoML archive (doi:10.1021/acs.jced.7b00769).
± gives the expanded uncertainty stated by the source.

Assay: xn = mol fraction of the nth substance listed
Conditions: Gas, isochoric method

## F/C=C\C(F)(F)F [(Z)-1,3,3,3-tetrafluoro-1-propene] + CC(C)C
303.15 K, 145.9 kPa, x2 = 0.118
  specific volume: 0.152 ± 0.0022 m3/kg
303.15 K, 155.7 kPa, x2 = 0.222
  specific volume: 0.1514 ± 0.002 m3/kg
303.15 K, 206.5 kPa, x2 = 0.427
  specific volume: 0.127 ± 0.0012 m3/kg
303.15 K, 213.5 kPa, x2 = 0.51
  specific volume: 0.1286 ± 0.0012 m3/kg
308.15 K, 148.7 kPa, x2 = 0.118
  specific volume: 0.152 ± 0.0026 m3/kg
308.15 K, 158.6 kPa, x2 = 0.222
  specific volume: 0.1514 ± 0.0006 m3/kg
308.15 K, 210.5 kPa, x2 = 0.427
  specific volume: 0.127 ± 0.0012 m3/kg
308.15 K, 217.4 kPa, x2 = 0.51
  specific volume: 0.1286 ± 0.0012 m3/kg
313.15 K, 151.4 kPa, x2 = 0.118
  specific volume: 0.1521 ± 0.0021 m3/kg
313.15 K, 161.5 kPa, x2 = 0.222
  specific volume: 0.1515 ± 0.0007 m3/kg
313.15 K, 214.4 kPa, x2 = 0.427
  specific volume: 0.1271 ± 0.0012 m3/kg
313.15 K, 221.3 kPa, x2 = 0.51
  specific volume: 0.1286 ± 0.0012 m3/kg
313.15 K, 398.1 kPa, x2 = 0.658
  specific volume: 0.0757 ± 0.0009 m3/kg
318.15 K, 154 kPa, x2 = 0.118
  specific volume: 0.1521 ± 0.0007 m3/kg
318.15 K, 164.3 kPa, x2 = 0.222
  specific volume: 0.1515 ± 0.0008 m3/kg
318.15 K, 218.3 kPa, x2 = 0.427
  specific volume: 0.1271 ± 0.0012 m3/kg
318.15 K, 225.2 kPa, x2 = 0.51
  specific volume: 0.1287 ± 0.0012 m3/kg
318.15 K, 362.3 kPa, x2 = 0.725
  specific volume: 0.0906 ± 0.0047 m3/kg
318.15 K, 406.6 kPa, x2 = 0.658
  specific volume: 0.0758 ± 0.004 m3/kg
323.15 K, 156.8 kPa, x2 = 0.118
  specific volume: 0.1521 ± 0.0015 m3/kg
323.15 K, 167.2 kPa, x2 = 0.222
  specific volume: 0.1515 ± 0.0007 m3/kg
323.15 K, 222.2 kPa, x2 = 0.427
  specific volume: 0.1271 ± 0.0012 m3/kg
323.15 K, 229.2 kPa, x2 = 0.51
  specific volume: 0.1287 ± 0.0012 m3/kg
323.15 K, 369.1 kPa, x2 = 0.725
  specific volume: 0.0906 ± 0.004 m3/kg
323.15 K, 414.5 kPa, x2 = 0.658
  specific volume: 0.0758 ± 0.004 m3/kg
328.15 K, 159.4 kPa, x2 = 0.118
  specific volume: 0.1522 ± 0.0007 m3/kg
328.15 K, 170 kPa, x2 = 0.222
  specific volume: 0.1516 ± 0.0013 m3/kg
328.15 K, 226 kPa, x2 = 0.427
  specific volume: 0.1271 ± 0.0012 m3/kg
328.15 K, 233.1 kPa, x2 = 0.51
  specific volume: 0.1287 ± 0.0012 m3/kg
328.15 K, 375.8 kPa, x2 = 0.725
  specific volume: 0.0906 ± 0.004 m3/kg
328.15 K, 423.1 kPa, x2 = 0.658
  specific volume: 0.0758 ± 0.0026 m3/kg
333.15 K, 162 kPa, x2 = 0.118
  specific volume: 0.1522 ± 0.0013 m3/kg
333.15 K, 172.7 kPa, x2 = 0.222
  specific volume: 0.1516 ± 0.0006 m3/kg
333.15 K, 229.8 kPa, x2 = 0.427
  specific volume: 0.1272 ± 0.0012 m3/kg
333.15 K, 237 kPa, x2 = 0.51
  specific volume: 0.1287 ± 0.0012 m3/kg
333.15 K, 382.5 kPa, x2 = 0.725
  specific volume: 0.0907 ± 0.0041 m3/kg
333.15 K, 430.7 kPa, x2 = 0.658
  specific volume: 0.0758 ± 0.0041 m3/kg
338.15 K, 164.6 kPa, x2 = 0.118
  specific volume: 0.1522 ± 0.0008 m3/kg
338.15 K, 175.4 kPa, x2 = 0.222
  specific volume: 0.1516 ± 0.0012 m3/kg
338.15 K, 233.6 kPa, x2 = 0.427
  specific volume: 0.1272 ± 0.0012 m3/kg
338.15 K, 240.9 kPa, x2 = 0.51
  specific volume: 0.1288 ± 0.0012 m3/kg
338.15 K, 389.1 kPa, x2 = 0.725
  specific volume: 0.0907 ± 0.0041 m3/kg
338.15 K, 438.4 kPa, x2 = 0.658
  specific volume: 0.0758 ± 0.0041 m3/kg
343.15 K, 167.2 kPa, x2 = 0.118
  specific volume: 0.1523 ± 0.0009 m3/kg
343.15 K, 178.2 kPa, x2 = 0.222
  specific volume: 0.1517 ± 0.0014 m3/kg
343.15 K, 237.3 kPa, x2 = 0.427
  specific volume: 0.1272 ± 0.0012 m3/kg
343.15 K, 244.7 kPa, x2 = 0.51
  specific volume: 0.1288 ± 0.0012 m3/kg
343.15 K, 395.8 kPa, x2 = 0.725
  specific volume: 0.0907 ± 0.0041 m3/kg
343.15 K, 446 kPa, x2 = 0.658
  specific volume: 0.0758 ± 0.0041 m3/kg
348.15 K, 169.8 kPa, x2 = 0.118
  specific volume: 0.1523 ± 0.0011 m3/kg
348.15 K, 180.8 kPa, x2 = 0.222
  specific volume: 0.1517 ± 0.0007 m3/kg
348.15 K, 241.1 kPa, x2 = 0.427
  specific volume: 0.1272 ± 0.0011 m3/kg
348.15 K, 248.6 kPa, x2 = 0.51
  specific volume: 0.1288 ± 0.0011 m3/kg
348.15 K, 402.5 kPa, x2 = 0.725
  specific volume: 0.0907 ± 0.0054 m3/kg
348.15 K, 453.6 kPa, x2 = 0.658
  specific volume: 0.0759 ± 0.004 m3/kg
353.15 K, 172.5 kPa, x2 = 0.118
  specific volume: 0.1523 ± 0.003 m3/kg
353.15 K, 183.7 kPa, x2 = 0.222
  specific volume: 0.1517 ± 0.0006 m3/kg
353.15 K, 244.7 kPa, x2 = 0.427
  specific volume: 0.1273 ± 0.0011 m3/kg
353.15 K, 252.4 kPa, x2 = 0.51
  specific volume: 0.1288 ± 0.0011 m3/kg
353.15 K, 409.1 kPa, x2 = 0.725
  specific volume: 0.0907 ± 0.0028 m3/kg
353.15 K, 461.2 kPa, x2 = 0.658
  specific volume: 0.0759 ± 0.0023 m3/kg
358.15 K, 175.1 kPa, x2 = 0.118
  specific volume: 0.1524 ± 0.001 m3/kg
358.15 K, 186.5 kPa, x2 = 0.222
  specific volume: 0.1518 ± 0.0006 m3/kg
358.15 K, 248.6 kPa, x2 = 0.427
  specific volume: 0.1273 ± 0.0011 m3/kg
358.15 K, 256.3 kPa, x2 = 0.51
  specific volume: 0.1289 ± 0.0011 m3/kg
358.15 K, 415.6 kPa, x2 = 0.725
  specific volume: 0.0908 ± 0.0023 m3/kg
358.15 K, 468.5 kPa, x2 = 0.658
  specific volume: 0.0759 ± 0.0041 m3/kg
363.15 K, 177.7 kPa, x2 = 0.118
  specific volume: 0.1524 ± 0.0021 m3/kg
363.15 K, 189.4 kPa, x2 = 0.222
  specific volume: 0.1518 ± 0.0006 m3/kg
363.15 K, 252.3 kPa, x2 = 0.427
  specific volume: 0.1273 ± 0.0011 m3/kg
363.15 K, 260.1 kPa, x2 = 0.51
  specific volume: 0.1289 ± 0.0011 m3/kg
363.15 K, 422.1 kPa, x2 = 0.725
  specific volume: 0.0908 ± 0.0041 m3/kg
363.15 K, 476 kPa, x2 = 0.658
  specific volume: 0.0759 ± 0.0041 m3/kg
368.15 K, 180.3 kPa, x2 = 0.118
  specific volume: 0.1524 ± 0.0011 m3/kg
368.15 K, 192.1 kPa, x2 = 0.222
  specific volume: 0.1518 ± 0.0006 m3/kg
368.15 K, 256 kPa, x2 = 0.427
  specific volume: 0.1274 ± 0.0011 m3/kg
368.15 K, 263.9 kPa, x2 = 0.51
  specific volume: 0.1289 ± 0.0011 m3/kg
368.15 K, 428.6 kPa, x2 = 0.725
  specific volume: 0.0908 ± 0.0041 m3/kg
368.15 K, 483.4 kPa, x2 = 0.658
  specific volume: 0.0759 ± 0.0041 m3/kg
373.15 K, 182.9 kPa, x2 = 0.118
  specific volume: 0.1525 ± 0.0012 m3/kg
373.15 K, 194.9 kPa, x2 = 0.222
  specific volume: 0.1519 ± 0.0006 m3/kg
373.15 K, 259.8 kPa, x2 = 0.427
  specific volume: 0.1274 ± 0.0011 m3/kg
373.15 K, 267.8 kPa, x2 = 0.51
  specific volume: 0.129 ± 0.0011 m3/kg
373.15 K, 435.2 kPa, x2 = 0.725
  specific volume: 0.0908 ± 0.0041 m3/kg
373.15 K, 490.9 kPa, x2 = 0.658
  specific volume: 0.0759 ± 0.0059 m3/kg
378.15 K, 185.5 kPa, x2 = 0.118
  specific volume: 0.1525 ± 0.0026 m3/kg
378.15 K, 197.7 kPa, x2 = 0.222
  specific volume: 0.1519 ± 0.0006 m3/kg
378.15 K, 263.6 kPa, x2 = 0.427
  specific volume: 0.1274 ± 0.0011 m3/kg
378.15 K, 271.7 kPa, x2 = 0.51
  specific volume: 0.129 ± 0.0011 m3/kg
378.15 K, 441.7 kPa, x2 = 0.725
  specific volume: 0.0908 ± 0.0059 m3/kg
378.15 K, 498.2 kPa, x2 = 0.658
  specific volume: 0.076 ± 0.004 m3/kg
383.15 K, 188.1 kPa, x2 = 0.118
  specific volume: 0.1525 ± 0.0026 m3/kg
383.15 K, 200.5 kPa, x2 = 0.222
  specific volume: 0.1519 ± 0.0007 m3/kg
383.15 K, 267.4 kPa, x2 = 0.427
  specific volume: 0.1274 ± 0.0011 m3/kg
383.15 K, 275.5 kPa, x2 = 0.51
  specific volume: 0.129 ± 0.0011 m3/kg
383.15 K, 448.3 kPa, x2 = 0.725
  specific volume: 0.0909 ± 0.0025 m3/kg
383.15 K, 505.8 kPa, x2 = 0.658
  specific volume: 0.076 ± 0.0008 m3/kg
